Earlier results on one compound are cited in patent US8703192B2, “Dosage form containing pantoprazole as active ingredient” (Takeda GmbH, priority 2003, dated 2014).

The conditions of the data set: in comparison to pantoprazole itself or to pantoprazole sodium sesquihydrate.

In the case of `COc1ccnc(C[S+]([O-])c2nc3cc(OC(F)F)ccc3[n-]2)c1OC.COc1ccnc(C[S+]([O-])c2nc3cc(OC(F)F)ccc3[n-]2)c1OC.O.O.[Mg+2]` (stereo not shown) [Magnesium bis[5-[difluoromethoxy]-2-[[3,4-dimethoxy-2-pyridinyl]-methyl]sulfinyl]-1H-benzimidazolide]dihydrate], the stability properties entry is reported as “improved stability properties”.
